Results from patent publication US20220000106A1, “HERBICIDAL COMPOSITIONS AND RELATED METHODS” (BELCHIM Crop Protection USA LLC, priority 2020, published 2022).

System: various established weeds including Carolina False Dandelion, Hop Clover, White Clover, Annual Sedge, and Smooth Crabgrass
Test: Field study of post-emergence weed control (overall percent weed control of combined weed species) in established Kentucky Tall Fescue
Assay type: in vivo
Conditions: for efficacy of all weeds: eight days after treatment
Procedure: Field studies were conducted on a mixed stand of established Kentucky Tall Fescue containing various established weeds including but not limited to Carolina False Dandelion, Hop Clover, White Clover, Annual Sedge, and Smooth Crabgrass in Selma, N.C. The trial location was mowed weekly at a mowing height of three inches. The distribution of weeds was uniform throughout the study.
Individual treatment plots were applied on a 1×3 meter squared plot area. The experimental design was a randomized complete block with three replications. The applications were made with a carbon dioxide backpack sprayer equipped with 11003 nozzles with a spray pressure of 40 psi calibrated to deliver approximately 40 gallons per acre spray volume. All applications were applied on a single day. The wind speed was less than 10 mph at time of application.
Data were collected at 2, 4, 8, 13, 23 and 30 days after application of treatments, respectively. Data were collected as an estimate of overall percent weed control (efficacy) of combined weed species taking into consideration necrosis, chlorosis, and stunting of each weed species. The data were analyzed in ARM using the ANOVA and preforming the Duncan's New MRT test at P=0.05 (indicated by “a,” “b,” “c,”, etc.).
Glufosinate used in this trial was Surmise (2.34 lb/gal.) marketed by Albaugh LLC. Pelargonic Acid used in this trial was Beloukha Garden Herbicide (4.21 lb/gal.) marketed by Belchim Crop Protection USA.
The total percent weed control was calculated by comparing the individual treated plots and assessing individual weeds.

SMILES: CCCCCCCCC(=O)O [Pelargonic Acid, nonanoic acid]
- Percent Control (3.2 fluid oz/gal, 2 days after treatment): 6.7b %
- Percent Control (3.2 fluid oz/gal, 4 days after treatment): 20.0c %
- Percent Control (3.2 fluid oz/gal, 8 days after treatment): 40.0c %
- Percent Control (3.2 fluid oz/gal, 13 days after treatment): 22.2d %
- Percent Control (3.2 fluid oz/gal, 23 days after treatment): 20.0d %
- Percent Control (3.2 fluid oz/gal, 30 days after treatment): 20.0c %
- Percent Control (6.4 fluid oz/gal, 2 days after treatment): 40.0a %
- Percent Control (6.4 fluid oz/gal, 2 days after treatment, listed as pelargonic acid): 40%
- Percent Control (6.4 fluid oz/gal, 4 days after treatment): 50.0b %
- Percent Control (6.4 fluid oz/gal, 8 days after treatment): 73.3b %
- Percent Control (6.4 fluid oz/gal, 13 days after treatment): 66.7c %
- Percent Control (6.4 fluid oz/gal, 23 days after treatment): 40.0c %
- Percent Control (6.4 fluid oz/gal, 30 days after treatment): 23.2c %
- efficacy of all weeds (pelargonic acid alone, both dose rates): 40% to 73

SMILES: CP(=O)(O)CCC(N)C(=O)O (stereo not shown) [Glufosinate, 2-amino-4-[hydroxy(methyl)phosphoryl]butanoic acid]
- Percent Control (0.5 fluid oz/gal, 2 days after treatment): 0.0b %
- Percent Control (0.5 fluid oz/gal, 4 days after treatment): 20.0c %
- Percent Control (0.5 fluid oz/gal, 8 days after treatment): 85.0ab %
- Percent Control (0.5 fluid oz/gal, 13 days after treatment): 90.0b %
- Percent Control (0.5 fluid oz/gal, 23 days after treatment): 85.2b %
- Percent Control (0.5 fluid oz/gal, 30 days after treatment): 83.6b %
- Percent Control (1.0 fluid oz/gal, 2 days after treatment): 0.0b %
- Percent Control (1.0 fluid oz/gal, 4 days after treatment): 15.0cd %
- Percent Control (1.0 fluid oz/gal, 8 days after treatment): 91.0a %
- Percent Control (1.0 fluid oz/gal, 13 days after treatment): 90.7b %
- Percent Control (1.0 fluid oz/gal, 23 days after treatment): 90.4b %
- Percent Control (1.0 fluid oz/gal, 30 days after treatment): 95.0a %
- Percent Control (2.0 fluid oz/gal, 2 days after treatment): 0.0b %
- Percent Control (2.0 fluid oz/gal, 4 days after treatment): 15.0cd %
- Percent Control (2.0 fluid oz/gal, 8 days after treatment): 94.3a %
- Percent Control (2.0 fluid oz/gal, 13 days after treatment): 98.0a %
- Percent Control (2.0 fluid oz/gal, 23 days after treatment): 99.1a %
- Percent Control (2.0 fluid oz/gal, 30 days after treatment): 97.1a %
- efficacy of all weeds (all glufosinate treatments at all dose rates): 85 to 94%
- control of all weeds (efficacy) (glufosinate alone, all dose rates, 23 days after treatment): 85 to 99%
